Experiments:
PI3K α (p110α/p85α) = molecular target: T1, PI3K α (p110α/p85α) (Homo sapiens, UniProt P42336); test: PI 3-Kinase (human) HTRF assay, PI3K α; assay type: biochemical; settings: over mTOR and other PI3K isoforms; FIG. 6C
T1 construct: purchased Upstate / Millipore Corporation
Protocol: Briefly, the assay is a time resolved FRET assay that indirectly measures PIP3 product formed by the activity of a PI3-K. The kinase reaction is performed in a microtiter plate (e.g., a 384 well microtiter plate). The total reaction volume is approximately 20 ul per well. In the first step, each well receives 2 ul of test compound in 20% dimethylsulphoxide resulting in a 2% DMSO final concentration. […] The plate is sealed and incubated for 15 minutes at room temperature. […] The plate is sealed and incubated for 1 hour at room temperature. The reaction is stopped by adding 5 ul of Stop Solution per well and then 5 ul of Detection Mix is added per well. The plate is sealed, incubated for 1 hour at room temperature, and then read on an appropriate plate reader. Data is analyzed and IC50s are generated using GraphPad Prism 5.

[1] = system: preclinical breast cancer model; test: Preclinical breast cancer model, tumor weight / volume; assay type: in vivo; settings: 70 mg/kg Pan-PI3K inhibitor; 60 mg/kg compound A; FIG. 9 left panel
B cell function = test: TNP-Ficoll immunization, antibody production (FIG. 8); assay type: in vivo; settings: mice immunized with TNP-Ficoll, 7 days, 70 mg/kg GDC0941, 30, 60 or 120 mg/kg Compound A
Protocol: Mice were immunized with TNP-Ficoll and treated with 1) vehicle; 2) 70 mg/kg GDC0941; 3) 30 mg/kg Compound A; 4) 60 mg/kg Compound A; or 5) 120 mg/kg Compound A for 7 days. Antibody production was measured as a percentage of control group that were treated with vehicle.

[2] = system: MDA-MB-361, MDA-MB-453 and SKBr3 breast cancer cells; test: Western blot of PI3K pathway in cell lines with elevated PI3K α activity (FIG. 11); assay type: cell-based; settings: cell lines with elevated PI3K α activity: MDA-MB-361, MDA-MB-453 (PIK3CA mutation), SKBr3 (HER2)
[3] = system: Akt phosphorylation at serine 473; test: Western blot of Akt phosphorylation at serine 473 (FIG. 12); assay type: cell-based
[4] = system: tumor cells harboring PI3K α mutations; test: Tumor cell proliferation panel (FIG. 13); assay type: cell-based
[5] = system: 786-0 cells, a human kidney carcinoma cell line having a non-mutated PI3Kα; test: In vivo efficacy in 786-0 kidney carcinoma xenograft; design: species or system mice; settings: FIG. 6
Protocol: Compound A was administered orally at 60 and 120 mg/kg and compound A was administered orally as a solution at 1 mg/kg (QD). For example, a PI3Kα inhibitor is compared to a kinase inhibitor with specificity for mTor. […] FIG. 6C also provides biochemical potency data for the two compared inhibitors. PI3 Kinase α, β, γ and δ activity was assayed using the PI3 Kinase HTRF® assay kit (Millipore Corporation). Purified recombinant PI3Kα, PI3Kβ, PI3Kγ and PI3Kδ were obtained from Millipore Corporation. […] Emission ratios were converted into percent inhibitions and imported into GraphPad Prism software. […] IC50 values were determined using a nonlinear regression model available in GraphPad Prism 5.

[6] = system: PI3 kinase signaling pathway in MDA-MB-361, HCC-1419, NCI-H1048; test: Cellular signaling immunoblot in human tumor cell lines; assay type: cell-based; settings: Compound B 5-100 nM, Compound A 1 and 3 μM, 2 or 24 hours, Western blot, FIG. 15
Protocol: Compound A was synthesized at Intellikine and was supplied as a stock of 10 mM in 100% DMSO and diluted in the respective cell line's growth media.
Prior to treatment, cells were plated at 2×10^5 cells/well in 12-well plates in normal growth media and grown to 80% confluence.
Media was aspirated, cells were washed with 1×PBS, Ice cold 1× Cell Lysis Buffer was prepared from 10× stock and 100 μM 4-(2-Aminoethyl)benzenesulfonyl fluoride hydrochloride (AEBSF) and 1 mM sodium orthovanadate […] was added. Cells were lysed by adding 1× Cell Lysis Buffer (100 μL per well of 12-well plate of cells). Cells incubated on ice for 20 to 30 minutes to allow complete lysis, and lysates were transferred to microcentrifuge tubes, sonicated for 10 seconds, and subjected to microcentrifugation at 14,000×g for 10 minutes at 4° C. Cleared supernatants were transferred to fresh tubes, and stored at −20° C. for Western blot analysis. […] Molecular weight markers were loaded, the gel electrophoresed at 200V for 40 minutes.
The gels were electrotransferred to nitrocellulose membranes, and incubated in blocking buffer (Tris buffered saline plus 0.5% Tween-20 (TBS/T)+5% bovine serum albumin (BSA)) for 1 hour at room temperature. […]

[7] = Steady state blood glucose in nude mice (Example 41); assay type: in vivo, Mus musculus; settings: mean AUC after the last dose (Day 28)
Protocol: Blood glucose levels were measured via a tail knick using Abbott's “Freestyle Lite” Handheld Blood Glucose Monitor (Abbott Laboratories) at 15, 30, 60, 90, 120, and 1440 minutes after the last dose (Day 28).

[8] = system: mTORC1-dependent NRDG1 phosphorylation; test: Western blot of NRDG1 phosphorylation (FIG. 5B); assay type: cell-based
Akt phosphorylation = test: Western blot of Akt phosphorylation at serine 473 and threonine 308 (FIG. 7); assay type: cell-based; settings: serine 473 versus threonine 308
pAKT in PC3 cells = test: Inhibition of PI3K pathway, pAKT Western blot; assay type: cell-based, human; settings: PC3 model, FIG. 7
Protocol: Cells comprising one or more mutations in PI3Kα, including but not limited to breast cancer cells (e.g., MDA-MB-361, T47D, SKOV-3), and cells comprising one or more mutations in PTEN including but not limited to prostate cancer cells (e.g., PC3), are typically grown in cell growth media such as DMEM supplemented with fetal bovine serum and/or antibiotics, and grown to confluency. Cells are then treated with various concentrations of test compound for about 2 hours and subsequently lysed in cell lysis buffer. Lysates are subjected to SDS-PAGE followed by Western blot analysis to detect downstream signaling markers, including but not limited to pAKT(S473), pAKT(T308), pS6, and p4E-BP1.

T1 sequence (P42336 whole entry, canonical isoform): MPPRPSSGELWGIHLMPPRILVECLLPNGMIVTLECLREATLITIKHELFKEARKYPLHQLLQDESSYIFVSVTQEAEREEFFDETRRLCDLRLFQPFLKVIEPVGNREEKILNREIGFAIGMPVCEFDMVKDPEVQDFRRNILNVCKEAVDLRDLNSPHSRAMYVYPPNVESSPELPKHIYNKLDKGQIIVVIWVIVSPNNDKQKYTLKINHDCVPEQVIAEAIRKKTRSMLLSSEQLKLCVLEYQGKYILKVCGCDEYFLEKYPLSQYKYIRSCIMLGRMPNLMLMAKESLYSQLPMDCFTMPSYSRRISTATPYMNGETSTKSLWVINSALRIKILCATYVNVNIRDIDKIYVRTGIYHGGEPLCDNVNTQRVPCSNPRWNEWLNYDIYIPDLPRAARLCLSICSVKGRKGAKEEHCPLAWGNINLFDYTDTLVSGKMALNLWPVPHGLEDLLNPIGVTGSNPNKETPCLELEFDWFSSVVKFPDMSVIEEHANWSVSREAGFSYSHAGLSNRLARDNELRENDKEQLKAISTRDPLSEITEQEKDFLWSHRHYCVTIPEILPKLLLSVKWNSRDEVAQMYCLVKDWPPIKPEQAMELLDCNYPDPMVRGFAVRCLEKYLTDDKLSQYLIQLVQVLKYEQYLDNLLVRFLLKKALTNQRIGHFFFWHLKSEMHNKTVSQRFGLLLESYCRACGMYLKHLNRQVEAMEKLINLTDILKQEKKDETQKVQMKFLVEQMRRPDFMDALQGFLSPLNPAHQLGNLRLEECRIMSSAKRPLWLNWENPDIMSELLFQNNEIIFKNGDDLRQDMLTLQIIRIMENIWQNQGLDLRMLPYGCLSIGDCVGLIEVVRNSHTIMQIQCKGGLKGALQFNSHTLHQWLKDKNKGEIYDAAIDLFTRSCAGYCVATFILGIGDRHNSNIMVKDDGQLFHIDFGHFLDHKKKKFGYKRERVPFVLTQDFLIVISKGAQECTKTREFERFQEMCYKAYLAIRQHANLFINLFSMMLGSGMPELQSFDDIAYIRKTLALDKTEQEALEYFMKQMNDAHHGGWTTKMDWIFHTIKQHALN
T1 sequence (P27986 whole entry partner, canonical isoform): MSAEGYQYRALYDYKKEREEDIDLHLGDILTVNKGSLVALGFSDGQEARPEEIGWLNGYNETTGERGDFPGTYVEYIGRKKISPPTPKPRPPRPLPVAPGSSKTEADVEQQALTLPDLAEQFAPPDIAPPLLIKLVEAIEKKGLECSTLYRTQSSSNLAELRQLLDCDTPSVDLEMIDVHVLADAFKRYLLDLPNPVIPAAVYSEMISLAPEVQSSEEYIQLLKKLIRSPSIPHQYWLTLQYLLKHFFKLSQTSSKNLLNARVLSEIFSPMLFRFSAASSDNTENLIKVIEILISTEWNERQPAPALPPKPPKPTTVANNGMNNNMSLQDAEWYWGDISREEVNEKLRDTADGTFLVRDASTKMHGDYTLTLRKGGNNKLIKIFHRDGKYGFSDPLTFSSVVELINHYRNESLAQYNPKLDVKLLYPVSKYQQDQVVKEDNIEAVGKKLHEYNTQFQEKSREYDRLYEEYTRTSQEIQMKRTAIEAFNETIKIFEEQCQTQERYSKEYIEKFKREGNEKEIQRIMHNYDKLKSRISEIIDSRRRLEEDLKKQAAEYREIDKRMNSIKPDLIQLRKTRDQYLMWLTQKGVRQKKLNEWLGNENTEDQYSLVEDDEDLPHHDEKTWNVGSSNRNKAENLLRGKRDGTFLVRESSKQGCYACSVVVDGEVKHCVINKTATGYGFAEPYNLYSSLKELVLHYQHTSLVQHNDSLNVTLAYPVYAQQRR

Compound	specificity in inhibiting PI3K α (PI3K α (p110α/p85α))	tumor weight of a breast cancer model [1]	B cell function in vivo (antibody production as percentage of vehicle control) (B cell function)	inhibition of the PI3K pathway [2]	Akt phosphorylation at serine 473 ([3]; PTEN-mutant cell line, FIG. 12B)	Akt phosphorylation at serine 473 ([3]; western blot, FIG. 12A)	proliferation of tumor cells [4]	anti-tumor activity in 786-0 model ([5]; orally at 60 and 120 mg/kg, compared to MDA derived tumors)	inhibition of phosphorylation of downstream targets AKT, S6, 4E-BP1 [6]	Blood Glucose Fold Over Vehicle Control ([7]; 60 mg/kg QD) [fold]	Blood Glucose Fold Over Vehicle Control ([7]; 70 mg/kg QD 3on/4off) [fold]	Blood Glucose Fold Over Vehicle Control ([7]; 140 mg/kg QD 3on/4off) [fold]	Blood Glucose Fold Over Vehicle Control ([7]; 210 mg/kg QW) [fold]	sensitivity of mTORC1-dependent NRDG1 phosphorylation [8]	inhibition of Akt phosphorylation (Akt phosphorylation)	inhibition of Akt phosphorylation, serine 473 vs threonine 308 (pAKT in PC3 cells)	inhibition of kinase activity and tumor growth in 786-0 model ([5]; orally as a solution at 1 mg/kg (QD))
Nc1nc2cc(-c3ccc4ncc(C(=O)N5CCOCC5)n4c3)ccc2o1 [Compound A]	specificity of Compound A in inhibiting PI3K α over mTOR and other PI3K isoforms	reduction in tumor weight	not	inhibition of the PI3K pathway	reduced inhibition of Akt phosphorylation at serine 473	inhibition of Akt phosphorylation at serine 473	preferentially inhibits proliferation of tumor cells harboring PI3K α mutations	decreased activity	potently inhibited	0.97	1.02	1.26	1.16				
CC(C)n1nc(-c2ccc3oc(N)nc3c2)c2c(N)ncnc21 [Compound B]									potently inhibited					sensitivity	differential inhibition of Akt phosphorylation at serine 473 over threonine 308	differential inhibition of Akt phosphorylation at serine 473 over threonine 308	effective
